PMC4129951 (Nature chemical biology, 2010)

Assays:
LysC; aspartokinase III = biological target: T1, LysC; aspartokinase III (Escherichia coli, UniProt P08660); assay: in vitro reaction, product confirmed by LC-MS; assay type: biochemical; settings: product trapped with L-Cys as β-aspartyl cysteine
T1 sequence (P08660 2-449): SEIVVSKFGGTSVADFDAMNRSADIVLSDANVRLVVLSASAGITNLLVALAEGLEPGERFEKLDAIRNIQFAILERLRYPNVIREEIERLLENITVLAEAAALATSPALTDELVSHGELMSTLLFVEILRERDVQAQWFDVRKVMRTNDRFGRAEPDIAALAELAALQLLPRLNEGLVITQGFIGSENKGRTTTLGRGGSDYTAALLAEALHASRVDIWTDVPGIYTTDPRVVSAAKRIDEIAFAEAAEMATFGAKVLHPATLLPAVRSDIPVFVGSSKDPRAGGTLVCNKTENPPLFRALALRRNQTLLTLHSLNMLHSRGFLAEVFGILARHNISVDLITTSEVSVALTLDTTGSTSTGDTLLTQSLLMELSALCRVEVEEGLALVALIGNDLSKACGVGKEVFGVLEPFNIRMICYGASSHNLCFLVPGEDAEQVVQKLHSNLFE

[1] = biological target: T2, ProA(wt); γ-glutamyl phosphate reductase (Escherichia coli, UniProt P07004); assay: NADPH oxidation in coupled assay with ProB; assay type: biochemical; settings: γ-glutamyl phosphate formed in situ by ProB from L-Glu
T2 sequence (P07004 1-417): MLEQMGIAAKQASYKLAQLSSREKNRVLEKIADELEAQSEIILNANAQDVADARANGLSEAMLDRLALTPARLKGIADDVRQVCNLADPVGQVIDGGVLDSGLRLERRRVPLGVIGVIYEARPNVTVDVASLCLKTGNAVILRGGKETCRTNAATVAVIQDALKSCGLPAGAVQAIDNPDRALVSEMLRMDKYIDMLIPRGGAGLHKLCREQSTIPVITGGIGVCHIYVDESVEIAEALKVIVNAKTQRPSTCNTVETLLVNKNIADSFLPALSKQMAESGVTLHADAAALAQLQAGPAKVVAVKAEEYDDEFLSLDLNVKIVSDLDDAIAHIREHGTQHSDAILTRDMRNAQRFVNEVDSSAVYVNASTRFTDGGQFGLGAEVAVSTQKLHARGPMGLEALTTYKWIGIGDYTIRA

Compound | in vitro reaction, product confirmed by LC-MS (LysC; aspartokinase III) | NADPH oxidation in coupled assay with ProB [1]
N[C@@H](CC(=O)O)C(=O)O [L-Asp] | LysC from E. coli was used to convert L-Asp to β-aspartyl phosphate | –
NC(=O)C1=CN([C@@H]2O[C@H](COP(=O)(O)OP(=O)(O)OC[C@H]3O[C@@H](n4cnc5c(N)ncnc54)[C@H](OP(=O)(O)O)[C@@H]3O)[C@@H](O)[C@H]2O)C=CC1 [NADPH] | – | A coupled in vitro assay, which measures NADPH oxidation by ProA(wt)
